{
  "source": "patent US20250108051A1",
  "about": "“THERAPEUTIC AGENT FOR CANCER” (TOHOKU UNIVERSITY, priority 2022, published 2025)",
  "key": {"RKO cells": {"system": "RKO cells", "assay": "Screening of SCADS Inhibitor Kit with dabrafenib + trametinib, cell viability by MTT assay", "assay_type": "cell-based", "procedure": "As the SCADS Inhibitor Kit, one provided by the Molecular Profiling Committee of the Grants-in-Aid for Scientific Research “Advanced Animal Model Support (AdAMS)” in the innovation field of the Ministry of Education, Culture, Sports, Science and Technology was used.\nThe RKO cells were seeded on a 96-well plate with the number of cells of 2.7×10^3 cells/well, and 24 hours later, SCADS Inhibitor Kit 4 ver 2.3 was administered at 500 nM. Two plates treated in the same manner were prepared, and 50 nM of the BRAF inhibitor Dabrafenib and 5 nM of the MEK inhibitor Trametinib were administered to one of the plates. After incubation at 37° C. for 72 hours after the drug administration, cell viability was measured by an MTT assay (described below). The cell viability was evaluated for RKO cells administered with only DMSO.\nThe MTT (Thiazolyl blue tetrazolium bromide) assay was performed as follows.\nRKO cells were seeded on a 96-well plate with the number of cells of 1.5×10^3 cells/well, CO115 cells were seeded on a 96-well plate with the number of cells of 2.5×10^3 cells/well, and HT29 cells and WiDR cells were respectively seeded on 96-well plates with the number of cells of 6×10^3 cells/well. After incubation for about 24 hours until the cell density reached 40% to 60%, the drug was administered. […]\nThe synergistic effect was evaluated using Combination Index. […]"}, "[1]": {"system": "CO115 (BRAF V600E-mutated colorectal cancer cell line)", "assay": "MTT assay, encorafenib + binimetinib with retinoid", "assay_type": "cell-based", "details": "ATRA 0, 1.0 or 10 μM; encorafenib and binimetinib 0 to 10 μM", "procedure": "(§1) RKO cells were seeded on a 96-well plate with the number of cells of 1.5×10^3 cells/well, CO115 cells were seeded on a 96-well plate with the number of cells of 2.5×10^3 cells/well, and HT29 cells and WiDR cells were respectively seeded on 96-well plates with the number of cells of 6×10^3 cells/well. After incubation for about 24 hours until the cell density reached 40% to 60%, the drug was administered. After incubation at 37° C. for 72 hours, the MTT assay was performed using Cell Counting Kit-8 (Dojindo Laboratories, Kumamoto, Japan). To each well was added 10 μl of Cell Counting Kit-8 solution, the plates were placed in a culture vessel at 5% CO2 and 37° C. for 120 minutes to perform a color reaction, and then the absorbance at 450 nm was measured and evaluated with a microplate reader SpectraMax M2e (Molecular Devices, Sunnyvale, CA, USA). Cells administered with 0.1% DMSO were used as a control. The above was performed three or more times as independent experiments.\n(§2) In various kinds of colorectal cancer cell lines, the inhibition effect of a BRAF inhibitor (encorafenib) and an MEK inhibitor (binimetinib) for the viability of cells and the enhancement by ATRA were examined. […] The horizontal axis indicates component concentrations of encorafenib and binimetinib in a range of 0 μM to 10 μM, and the vertical axis indicates the cell viability when 0 μM, 1.0 μM, or 10 μM (each bar graph) of ATRA was administered. As shown in the drawing, encorafenib and binimetinib were used in an equal molar concentration.\n(§3) As the compounds for acting and on a retinoid receptor, retinol, tamibarotene, bexarotene among the retinoids were used. As the cell lines, the above-described cell lines including RKO, HT29, and CO115 were used. As the BRAF inhibitor and the MEK inhibitor to be used in combination, a component (EB) obtained by mixing encorafenib and binimetinib in equal amounts was used as in Test Example 2.\nas §3, with “acting” for “acting and”, “tamibarotene, and” for “tamibarotene,”, “colorectal cancer” for “above-described”, “HT29, CO115, WiDR, COLO205,” for “HT29,”, “LIM2405 described above” for “CO115”"}, "[2]": {"system": "HT29 (BRAF V600E-mutated colorectal cancer cell line)", "assay": "MTT assay, encorafenib + binimetinib with retinoid", "assay_type": "cell-based", "details": "ATRA 0, 1.0 or 10 μM; encorafenib and binimetinib 0 to 10 μM", "procedure": "as §1, §2, §3\nas §3, with “acting” for “acting and”, “tamibarotene, and” for “tamibarotene,”, “colorectal cancer” for “above-described”, “HT29, CO115, WiDR, COLO205,” for “HT29,”, “LIM2405 described above” for “CO115”"}, "[3]": {"system": "RKO (BRAF V600E-mutated colorectal cancer cell line)", "assay": "MTT assay, encorafenib + binimetinib with retinoid", "assay_type": "cell-based", "details": "ATRA 0, 1.0 or 10 μM; encorafenib and binimetinib 0 to 10 μM", "procedure": "as §1, §2, §3\nas §3, with “acting” for “acting and”, “tamibarotene, and” for “tamibarotene,”, “colorectal cancer” for “above-described”, “HT29, CO115, WiDR, COLO205,” for “HT29,”, “LIM2405 described above” for “CO115”"}, "[4]": {"system": "WiDR (BRAF V600E-mutated colorectal cancer cell line)", "assay": "MTT assay, encorafenib + binimetinib with retinoid", "assay_type": "cell-based", "details": "ATRA 0, 1.0 or 10 μM; encorafenib and binimetinib 0 to 10 μM", "procedure": "as §1, §2\nas §3, with “acting” for “acting and”, “tamibarotene, and” for “tamibarotene,”, “colorectal cancer” for “above-described”, “HT29, CO115, WiDR, COLO205,” for “HT29,”, “LIM2405 described above” for “CO115”"}, "[5]": {"system": "8505C (BRAF V600E-mutated thyroid cancer cell line)", "assay": "MTT assay, encorafenib + binimetinib with ATRA", "assay_type": "cell-based", "details": "ATRA 0, 1.0 or 10 μM; encorafenib and binimetinib 0 to 10 μM"}, "[6]": {"system": "cleaved PARP in RKO cell line", "assay": "Western blot of cleaved PARP under RARα or RXRα knockdown", "assay_type": "cell-based", "procedure": "To the collected cells were added Radioimmunoprecipitation assay buffer (composition: 50 mM Tris-HCL, pH 8.0, 150 mM Sodium Chloride, 0.5 w/v % Sodium Deoxycholate, 0.1 w/v % Sodium Dodecyl Sulfate, 1.0 w/v % NP-40 substitute) supplemented with Halt Protease Inhibitor Cocktail (Thermo Fisher Scientific Inc.), followed by dissolving the cells, and a protein was extracted. The extracted protein was quantified by a bicinchoninic acid method. A protein sample in an amount of 5 μg was separated by polyacrylamide electrophoresis, and the separated protein sample was transferred to Polyvinylidene difluoride membrane (PVDF membrane, Merck Millipore Ltd.), followed by blocking with Odyssey Blocking Buffer (Licor Inc.) for 1 hour at room temperature. Thereafter, the PVDF membrane after transfer was immersed in a primary antibody solution, followed by culturing at room temperature for 2 hours or at 4° C. overnight. After the primary antibody reaction, the PVDF membrane was washed with Tris Buffered Saline with Tween 20 (TBS-T) for 5 minutes at room temperature for three times and immersed in a secondary antibody, followed by incubating at room temperature for 1 hour. As the secondary antibody, Goat anti-Rabbit IgG (H+L) Highly Cross-Adsorbed Secondary Antibody Alexa Fluor680 (Thermo Fisher Scientific Inc.) and Goat anti-Mouse IgG (H+L) Highly Cross-Adsorbed Secondary Antibody Alexa Fluor680 (Thermo Fisher Scientific Inc.) were used at a dilution ratio of 1:1000. Thereafter, washing with TBS-T for 5 minutes was performed three times, and a measurement of signals was performed using an Odyssey Infrared Imaging System (Licor Inc.). […] The above was performed three or more times as independent experiments. Student's test was used for a significant difference test."}, "HT29 cell line": {"system": "HT29 cell line", "assay": "Subcutaneous transplanted tumor mouse model (Test Example 13)", "assay_type": "in vivo", "description": "The in vivo antitumor effect and toxicity generated by combined use of a compound acting on a retinoid receptor, a BRAF inhibitor, an MEK inhibitor, and an anti-EGFR antibody, or a BRAF inhibitor and an anti-EGFR antibody were evaluated by a mouse model subcutaneous transplanted with a HT29 cell line.\nFemale nude mice (BALB/c-nu) were purchased from The Jackson Laboratory Japan, and raised in a specific pathogen-free environment. The cultured HT29 cell line was collected with trypsin, and a culture medium and a Corning Matrigel basement membrane matrix (Corning) were mixed at a volume ratio of 1:1 so as to reach 1×10^7 cells/mL, followed by suspension. Into a left abdominal region of each mouse was subcutaneously implanted 0.1 mL of cell suspension. When tumor volumes reached 150 mm^3 to 200 mm^3, mice were randomly divided into a vehicle group, a TRE single group, an ENC+CET group, a three-drug combination (TRE+ENC+CET) group including TRE and ENC+CET, an ENC+BIN+CET group, or a four-drug combination (TRE+ENC+BIN+CET) group including TRE and ENC+BIN+CET. TRE, ENC, and BIN were dissolved in Corn oil (FUJIFILM Wako Pure Chemical Industries, Ltd.), and further subjected to ultrasonic treatment using Bioruptor UCW-310 (Sonicbio. Co. Ltd.) to prepare a drug solution. ENC, BIN, and TRE were orally administrated by force once a day for 28 days at doses of 5 mg/kg, 1.75 mg/kg, and 10 mg/kg, respectively. […] The tumor size and the body weight were measured every three days from the start of the therapy. […]\nSubsequently, in order to evaluate the influence of the combined use of TRE and ENC+BIN+CET or ENC+CET on in vivo tumor proliferation, a Ki-67 labeling index was calculated using a resected tumor at the end of the therapy.\nSpecifically, tumors were extracted from 4 to 6 mice randomly selected from each therapy group. […] Five fields of view for a central part of the tumor without tumor necrosis were selected, and 500 or more cells in total were counted in each group. The Ki-67 labeling index was calculated as the number of Ki-67 positive cells/the total number of cells."}},
  "data": [
    {"smiles": "CC1=C(/C=C/C(C)=C/C=C/C(C)=C/C(=O)O)C(C)(C)CCC1", "note": "[ATRA, all-trans retinoic acid]", "values": [
      {"measurement": "proliferation inhibition", "setting": "RKO cells; ATRA alone", "value": "less than 20%"},
      {"measurement": "viability at 0.5 µM", "setting": "RKO cells; Homo sapiens, RKO, 72 hours, kit compound (ATRA) 0.5 μM, DAB 50 nM, TRA 5 nM, relative to DMSO", "value": 101, "unit": "%"},
      {"measurement": "cell viability with encorafenib and binimetinib as a function of ATRA concentration", "setting": "[1]", "value": "the higher the concentration of ATRA is, the lower the cell viability is"},
      {"measurement": "cell viability with encorafenib and binimetinib as a function of ATRA concentration", "setting": "[2]", "value": "the higher the concentration of ATRA is, the lower the cell viability is"},
      {"measurement": "cell viability with encorafenib and binimetinib as a function of ATRA concentration", "setting": "[3]", "value": "the higher the concentration of ATRA is, the lower the cell viability is"},
      {"measurement": "cell viability with encorafenib and binimetinib as a function of ATRA concentration", "setting": "[4]", "value": "the higher the concentration of ATRA is, the lower the cell viability is"},
      {"measurement": "cell viability with encorafenib and binimetinib as a function of ATRA concentration", "setting": "[5]", "value": "the higher the concentration of ATRA is, the lower the cell viability is"},
      {"measurement": "enhancement by TRE of expression level of cleaved PARP caused by ENC+BIN", "setting": "[6]; RARα inhibited", "value": "about 8 times"},
      {"measurement": "enhancement by TRE of expression level of cleaved PARP caused by ENC+BIN+CET", "setting": "[6]; RARα inhibited", "value": "about 3 times"},
      {"measurement": "enhancement by TRE of expression level of cleaved PARP caused by ENC+BIN", "setting": "[6]; RXRα inhibited", "value": "about 1.5 times"},
      {"measurement": "enhancement by TRE of expression level of cleaved PARP caused by ENC+BIN+CET", "setting": "[6]; RXRα inhibited", "value": "about 2 times"},
      {"measurement": "enhancement by TRE of expression level of cleaved PARP caused by ENC+BIN", "setting": "[6]; si-NC", "value": "about 13 times"},
      {"measurement": "enhancement by TRE of expression level of cleaved PARP caused by ENC+BIN+CET", "setting": "[6]; si-NC", "value": "about 11 times"},
      {"measurement": "mouse body weights depending on the presence or absence of TRE", "setting": "HT29 cell line; 28 days after the therapy", "value": "no significant difference"},
      {"measurement": "tumor volume", "setting": "HT29 cell line; 28 days from the start of the therapy, ENC 5 mg/kg, BIN 1.75 mg/kg, TRE 10 mg/kg oral once a day, CET 20 mg/kg i.p. twice a week", "value": 1156, "unit": "mm^3"},
      {"measurement": "Ki-67 labeling index", "setting": "HT29 cell line; resected tumor at the end of the therapy, TRE vs vehicle, combinations vs same group without TRE", "value": "No significant difference"}
    ]}
  ]
}
